The values below come from patent publication US20190351012A1, “TARGETING OF INTERFERON-STIMULATED GENE EXPRESSION TO TREAT INTERFERONOPATHIES” (New York University, priority 2018, published 2019).

The assay deals with BRD4 at ISG56, Mx1 and IRF9 TSS. The experiment in a line: ChIP-qPCR for BRD4 at ISG promoters in HeLa cells. In kind it is cell-based, human. Conditions: 1 h IFN stimulation. As to the method:
FIG. 5. BRD4 is required for ISG transcription. (A) HeLa cells were either left untreated or treated with IFN-α for 1 h in presence or absence of JQ-1 or HMBA. Using primers spanning intron-exon junctions, nuclear pre-mRNA for ISG54 and γ-actin were quantified by real-time RT-PCR and normalized to GAPDH mRNA. (B) Control and BRD4 KD cells were either left untreated or treated with IFN-α. ISG56 and BRD4 mRNA were quantified using real-time RT-PCR and normalized to GAPDH mRNA abundance. (C) HEK293T cells were transfected with pcDNA3 (Ctl) or Brd4 expression constructs along with a luciferase reporter driven by the ISG54 promoter. 24 h after transfection, cells were either left untreated or treated with IFN-α in the absence or presence of TSA before being assayed for luciferase activity (left panel). […] Nuclear proteins were extracted as a soluble fraction and a chromatin bound fraction and analyzed by western blotting using anti-BRD4, H4-AcK5 and actin antibodies. […] (F) ChIP assays were performed with antibodies against BRD4 and recovered ISG56, Mx1 and IRF9 TSS spanning sequences were quantified by real-time PCR, normalized to input, and represented as fold enrichment over the untreated sample. […]
Chromatin immunoprecipitation was performed as follows. […] Immunoprecipitated DNA sequences were recovered by alcohol precipitation and quantified by real-time PCR compared with input genomic DNA. […]
For orientation: Real-time PCR tracks product formation cycle by cycle.

With `CC(/C=C/C(=O)NO)=C\[C@@H](C)C(=O)c1ccc(N(C)C)cc1` [TSA, Trichostatin A], the “IFN-induced BRD4 recruitment to ISG promoters” value is “abrogated”.
